Legend:
NaV1.1 = NaV1.1 (Homo sapiens (Human), UniProt P35498); experiment: Sodium Influx Assay (Flux), NaV1.1; format: cell-based; settings: Trex HEK293 cells, ANG2 dye; arithmetic mean
NaV1.6 = NaV1.6 (Homo sapiens (Human), UniProt Q9UQD0); experiment: Sodium Influx Assay (Flux), NaV1.6; settings: read-out: Flux NaV1.6 IC50; Trex HEK293 cells, ANG2 dye; arithmetic mean
NaV1.5 = NaV1.5 (Homo sapiens (Human), UniProt Q14524); experiment: Sodium Influx Assay (Flux), NaV1.5; settings: read-out: Flux NaV1.5 IC50; Trex HEK293 cells, ANG2 dye; arithmetic mean
Sequence of NaV1.5 (Q14524 other isoform, or with tags, fused parts or gaps): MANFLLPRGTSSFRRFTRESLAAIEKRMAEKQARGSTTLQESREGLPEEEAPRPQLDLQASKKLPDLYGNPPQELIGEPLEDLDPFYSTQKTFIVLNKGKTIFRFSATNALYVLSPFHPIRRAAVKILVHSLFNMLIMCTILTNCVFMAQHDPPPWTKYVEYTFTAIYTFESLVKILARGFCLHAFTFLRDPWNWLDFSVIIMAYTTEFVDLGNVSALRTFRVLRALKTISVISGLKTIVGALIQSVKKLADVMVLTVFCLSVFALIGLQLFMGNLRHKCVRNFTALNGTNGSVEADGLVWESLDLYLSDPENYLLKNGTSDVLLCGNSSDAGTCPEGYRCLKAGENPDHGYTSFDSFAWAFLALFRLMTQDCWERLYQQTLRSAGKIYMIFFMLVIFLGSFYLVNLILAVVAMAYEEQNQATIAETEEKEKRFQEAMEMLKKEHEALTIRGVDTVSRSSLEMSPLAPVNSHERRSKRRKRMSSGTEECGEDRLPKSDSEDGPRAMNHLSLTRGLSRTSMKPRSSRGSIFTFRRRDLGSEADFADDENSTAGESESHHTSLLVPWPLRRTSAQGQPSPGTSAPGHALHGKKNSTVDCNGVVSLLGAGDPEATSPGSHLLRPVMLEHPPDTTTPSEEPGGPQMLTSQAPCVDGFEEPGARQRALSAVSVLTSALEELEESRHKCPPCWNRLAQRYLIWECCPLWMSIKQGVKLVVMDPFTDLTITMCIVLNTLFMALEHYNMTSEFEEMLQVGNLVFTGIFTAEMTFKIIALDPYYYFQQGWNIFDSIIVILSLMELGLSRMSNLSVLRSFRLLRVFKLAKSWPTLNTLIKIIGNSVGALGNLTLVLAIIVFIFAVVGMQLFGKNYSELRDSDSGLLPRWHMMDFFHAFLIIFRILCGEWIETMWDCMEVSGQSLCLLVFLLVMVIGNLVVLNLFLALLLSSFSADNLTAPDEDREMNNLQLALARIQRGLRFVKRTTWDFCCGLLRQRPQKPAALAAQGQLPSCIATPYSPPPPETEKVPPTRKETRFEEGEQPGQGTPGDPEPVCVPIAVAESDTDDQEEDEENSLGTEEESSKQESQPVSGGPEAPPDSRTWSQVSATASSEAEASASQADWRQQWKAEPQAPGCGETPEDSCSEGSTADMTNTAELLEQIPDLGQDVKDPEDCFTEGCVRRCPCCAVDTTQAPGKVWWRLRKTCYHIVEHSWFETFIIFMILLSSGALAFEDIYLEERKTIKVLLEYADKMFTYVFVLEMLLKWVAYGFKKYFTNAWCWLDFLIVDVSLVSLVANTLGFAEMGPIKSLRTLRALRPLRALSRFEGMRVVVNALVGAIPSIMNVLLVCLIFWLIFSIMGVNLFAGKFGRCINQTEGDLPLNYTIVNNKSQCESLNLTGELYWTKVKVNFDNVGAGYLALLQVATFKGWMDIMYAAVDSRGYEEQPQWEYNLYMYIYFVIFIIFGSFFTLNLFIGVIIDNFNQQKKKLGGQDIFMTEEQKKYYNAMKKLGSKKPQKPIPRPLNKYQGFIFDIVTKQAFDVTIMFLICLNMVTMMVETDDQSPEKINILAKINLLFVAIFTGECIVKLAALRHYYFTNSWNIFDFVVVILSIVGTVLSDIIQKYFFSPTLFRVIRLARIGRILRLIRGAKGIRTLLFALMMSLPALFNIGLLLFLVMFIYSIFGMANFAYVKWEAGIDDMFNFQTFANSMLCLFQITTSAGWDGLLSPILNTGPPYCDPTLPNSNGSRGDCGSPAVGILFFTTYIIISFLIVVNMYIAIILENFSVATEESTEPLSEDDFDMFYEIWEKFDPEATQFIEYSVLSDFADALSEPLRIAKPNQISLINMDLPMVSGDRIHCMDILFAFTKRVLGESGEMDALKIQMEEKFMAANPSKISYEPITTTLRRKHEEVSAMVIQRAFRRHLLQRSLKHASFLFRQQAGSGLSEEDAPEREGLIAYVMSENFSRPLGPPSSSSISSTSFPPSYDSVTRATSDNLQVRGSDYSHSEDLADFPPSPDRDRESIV

IC50 (NaV1.1) [µM]	IC50 (NaV1.6) [µM]	Structure (SMILES)	IC50 (NaV1.5) [µM]
5.45	0.432	Cc1ccc(F)c(CN2CC[C@H](N(C)c3cc(F)c(S(=O)(=O)Nc4cscn4)cc3Cl)C2)c1 [Example 172, (S)-5-chloro-2-fluoro-4-((1-(2-fluoro-5-methylbenzyl)-pyrrolidin-3-yl)(methyl)amino)-N-(thiazol-4-yl)benzene-sulfonamide 2,2,2-trifluoroacetate]	4.97
8.75	3.34	COc1ccc(F)c(CN2CC[C@H](N(C)c3cc(F)c(S(=O)(=O)Nc4cscn4)cc3Cl)C2)c1 [Example 173, (S)-5-chloro-2-fluoro-4-((1-(2-fluoro-5-methoxybenzyl)-pyrrolidin-3-yl)(methyl)amino)-N-(thiazol-4-yl)benzene-sulfonamide 2,2,2-trifluoroacetate]	9.86
10.2	9.16	COC(=O)c1cccc(CN2CC[C@H](N(C)c3cc(F)c(S(=O)(=O)Nc4cscn4)cc3Cl)C2)c1 [Example 174, methyl (S)-3-((3-((2-chloro-5-fluoro-4-(N-(thiazol-4-yl)sulfamoyl)-phenyl)(methyl)-amino)pyrrolidin-1-yl)methyl)benzoate]	16.2
13.2	2.55	CN(c1cc(F)c(S(=O)(=O)Nc2cscn2)cc1Cl)[C@H]1CCN(CCC(C)(C)C)C1 [Example 175, (S)-5-chloro-4-((1-(3,3-dimethylbutyl)-pyrrolidin-3-yl)(methyl)amino)-2-fluoro-N-(thiazol-4-yl)benzene-sulfonamide 2,2,2-trifluoroacetate]	> 30
12.9	1.09	CN(c1cc(F)c(S(=O)(=O)Nc2cscn2)cc1Cl)[C@H]1CCN(Cc2cccc(Br)n2)C1 [Example 178, (S)-4-((1-((6-bromopyridin-2-yl)methyl)pyrrolidin-3-yl)(methyl)amino)-5-chloro-2-fluoro-N-(thiazol-4-yl)benzene-sulfonamide]	16
16.8	5.29	CN(c1cc(F)c(S(=O)(=O)Nc2cscn2)cc1Cl)[C@H]1CCN(Cc2ccc(F)cc2)C1 [Example 180, (S)-5-chloro-2-fluoro-4-((1-(4-fluorobenzyl)-pyrrolidin-3-yl)(methyl)amino)-N-(thiazol-4-yl)benzene-sulfonamide]	25.4
> 30	3.15	CN(c1cc(F)c(S(=O)(=O)Nc2cscn2)cc1Cl)[C@H]1CCN(Cc2cccn2C)C1 [Example 181, (S)-5-chloro-2-fluoro-4-(methyl(1-((1-methyl-1H-pyrrol-2-yl)methyl)pyrrolidin-3-yl)amino)-N-(thiazol-4-yl)benzene-sulfonamide]	> 30
9.41	0.877	CN(c1cc(F)c(S(=O)(=O)Nc2cscn2)cc1Cl)[C@H]1CCN(Cc2c[nH]c3ccccc23)C1 [Example 182, (S)-4-((1-((1H-indol-3-yl)methyl)pyrrolidin-3-yl)(methyl)amino)-5-chloro-2-fluoro-N-(thiazol-4-yl)benzene-sulfonamide 2,2,2-trifluoroacetate]	9.86
> 30	6.93	CN(c1cc(F)c(S(=O)(=O)Nc2cscn2)cc1Cl)[C@H]1CCN(Cc2ccn(C)n2)C1 [Example 183, (S)-5-chloro-2-fluoro-4-(methyl(1-((1-methyl-1H-pyrazol-3-yl)methyl)pyrrolidin-3-yl)amino)-N-(thiazol-4-yl)benzene-sulfonamide]	> 30
> 30	5.38	CN(c1cc(F)c(S(=O)(=O)Nc2cscn2)cc1Cl)[C@H]1CCN(Cc2ncc3ccccn23)C1 [Example 184, (S)-5-chloro-2-fluoro-4-((1-(imidazo[1,5-a]pyridin-3-ylmethyl)pyrrolidin-3-yl)(methyl)amino)-N-(thiazol-4-yl)benzene-sulfonamide]	> 30
8.81	7.02	CN(c1cc(F)c(S(=O)(=O)Nc2cscn2)cc1Cl)[C@H]1CCN(Cc2ccnc(C(F)(F)F)c2)C1 [Example 185, (S)-5-chloro-2-fluoro-4-(methyl(1-((2-(trifluoromethyl)-pyridin-4-yl)methyl)pyrrolidin-3-yl)amino)-N-(thiazol-4-yl)benzene-sulfonamide]	22.4
19.2	3.27	CN(c1cc(F)c(S(=O)(=O)Nc2cscn2)cc1Cl)[C@H]1CCN(Cc2cccc3ccncc23)C1 [Example 186, (S)-5-chloro-2-fluoro-4-((1-(isoquinolin-8-ylmethyl)pyrrolidin-3-yl)(methyl)amino)-N-(thiazol-4-yl)benzene-sulfonamide 2,2,2-trifluoroacetate]	20.1
17.3	1.01	CN(c1cc(F)c(S(=O)(=O)Nc2cscn2)cc1Cl)[C@H]1CCN(Cc2cccc(C(F)(F)F)n2)C1 [Example 187, (S)-5-chloro-2-fluoro-4-(methyl(1-((6-(trifluoromethyl)-pyridin-2-yl)methyl)pyrrolidin-3-yl)amino)-N-(thiazol-4-yl)benzene-sulfonamide]	25.4
3.25	4.15	CN(c1cc(F)c(S(=O)(=O)Nc2cscn2)cc1Cl)[C@H]1CCN(Cc2ccc(Cl)cc2)C1 [Example 188, (S)-5-chloro-4-((1-(4-chlorobenzyl)-pyrrolidin-3-yl)(methyl)amino)-2-fluoro-N-(thiazol-4-yl)benzene-sulfonamide]	8.24
8.9	0.587	Cc1cccc(CN2CC[C@H](N(C)c3cc(F)c(S(=O)(=O)Nc4cscn4)cc3Cl)C2)c1F [Example 191, (S)-5-chloro-2-fluoro-4-((1-(2-fluoro-3-methylbenzyl)-pyrrolidin-3-yl)(methyl)amino)-N-(thiazol-4-yl)benzene-sulfonamide]	8.21
29.2	3.2	COc1cccc(CN2CC[C@H](N(C)c3cc(F)c(S(=O)(=O)Nc4cscn4)cc3Cl)C2)n1 [Example 194, (S)-5-chloro-2-fluoro-4-((1-((6-methoxypyridin-2-yl)methyl)pyrrolidin-3-yl)(methyl)amino)-N-(thiazol-4-yl)benzene-sulfonamide]	23.5
5.1	1.49	CN(c1cc(F)c(S(=O)(=O)Nc2cscn2)cc1Cl)[C@H]1CCN(Cc2cc(Cl)ccc2F)C1 [Example 195, (S)-5-chloro-4-((1-(5-chloro-2-fluorobenzyl)pyrrolidin-3-yl)(methyl)amino)-2-fluoro-N-(thiazol-4-yl)benzenesulfonamide]	3.78
1.87	1.26	CN(c1cc(F)c(S(=O)(=O)Nc2cscn2)cc1Cl)[C@H]1CCN(CCCc2ccccc2)C1 [Example 196, (S)-5-chloro-2-fluoro-4-(methyl(1-(3-phenylpropyl)pyrrolidin-3-yl)amino)-N-(thiazol-4-yl)benzenesulfonamide]	8.2

Structure (SMILES)	IC50 (NaV1.1) [µM]	IC50 (NaV1.6) [µM]	IC50 (NaV1.5) [µM]
CC(C)Oc1cccc(CN2CC[C@H](N(C)c3cc(F)c(S(=O)(=O)Nc4cscn4)cc3Cl)C2)c1 [Example 177, (S)-5-chloro-2-fluoro-4-((1-(3-isopropoxybenzyl)-pyrrolidin-3-yl)(methyl)amino)-N-(thiazol-4-yl)benzene-sulfonamide compound with triethylamine (1:0.35)]	3.91	3.15	7.52

From patent publication US10246453B2, “Benzenesulfonamide compounds and their use as therapeutic agents” (Xenon Pharmaceuticals Inc., priority 2016, dated 2019)
